Results taken from US20100311714A1, “1H-IMIDAZO[4,5-c]QUINOLINONE COMPOUNDS” (priority 2009, published 2010).
Converted amounts (≈) assume the structure as drawn. Read-outs that look alike come from different tables or passages of the source.

Legend:
[1] = Parallel Artificial Membrane Permeability Assay (PAMPA) at pH 6.8; assay type: physicochemical
In short: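 Reported as log Pe, membrane permeability was determined by parallel artificial membrane assay at pH 6.8 per Wohnsland–Faller.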

PI3K beta = target: T1, PI3K beta (Homo sapiens, UniProt P42338); assay: PI3K beta kinase assay (Kinase-Glo luminescence); assay type: biochemical
T1 construct: for the full-length p110-b subunit are generated and fused by overlapping PCR; His tag (C); made in house; host or cells: baculovirus BV949; Tn5 (Trichoplusia ni) or TiniPro insect cells
T1 sequence (P42338 with tags, fused parts or gaps limits assumed): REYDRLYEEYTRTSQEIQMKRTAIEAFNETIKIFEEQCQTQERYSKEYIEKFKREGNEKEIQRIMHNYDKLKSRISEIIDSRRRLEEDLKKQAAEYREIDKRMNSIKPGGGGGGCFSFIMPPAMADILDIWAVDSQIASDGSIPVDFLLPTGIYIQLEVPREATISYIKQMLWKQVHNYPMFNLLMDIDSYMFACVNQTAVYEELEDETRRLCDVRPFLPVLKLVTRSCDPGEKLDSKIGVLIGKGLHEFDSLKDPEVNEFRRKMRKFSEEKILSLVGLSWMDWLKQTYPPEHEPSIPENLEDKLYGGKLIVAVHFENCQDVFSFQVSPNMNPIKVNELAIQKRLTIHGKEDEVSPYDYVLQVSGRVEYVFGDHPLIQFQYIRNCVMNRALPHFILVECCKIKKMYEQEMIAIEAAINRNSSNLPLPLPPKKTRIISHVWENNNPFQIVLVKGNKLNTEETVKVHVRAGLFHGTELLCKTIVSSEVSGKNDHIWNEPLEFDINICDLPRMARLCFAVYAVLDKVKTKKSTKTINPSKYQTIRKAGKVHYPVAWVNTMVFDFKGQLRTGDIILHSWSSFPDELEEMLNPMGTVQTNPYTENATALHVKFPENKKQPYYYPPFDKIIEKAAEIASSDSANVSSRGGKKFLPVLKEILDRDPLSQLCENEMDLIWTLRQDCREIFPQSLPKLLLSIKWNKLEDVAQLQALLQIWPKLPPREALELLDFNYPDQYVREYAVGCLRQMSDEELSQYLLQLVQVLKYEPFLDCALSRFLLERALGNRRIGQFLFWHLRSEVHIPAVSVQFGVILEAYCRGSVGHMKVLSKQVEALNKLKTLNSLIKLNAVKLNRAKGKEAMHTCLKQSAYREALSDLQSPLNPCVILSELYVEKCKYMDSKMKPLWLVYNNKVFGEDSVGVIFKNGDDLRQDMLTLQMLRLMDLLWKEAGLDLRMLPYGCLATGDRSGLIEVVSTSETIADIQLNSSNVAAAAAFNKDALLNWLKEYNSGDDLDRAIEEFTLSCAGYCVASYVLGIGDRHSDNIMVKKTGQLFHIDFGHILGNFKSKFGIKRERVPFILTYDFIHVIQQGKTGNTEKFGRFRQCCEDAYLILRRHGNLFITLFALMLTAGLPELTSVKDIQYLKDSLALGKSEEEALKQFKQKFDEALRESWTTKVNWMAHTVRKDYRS
In short: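 Kinase-Glo luminescence read out ATP left after a 60-min room-temperature reaction, started with ATP (1 μM final) on 25 nM His-tagged p85 iSH2–p110β (BV949) plus 10 μg/mL PI substrate in pH 7.5 Tris buffer. Percent inhibition at eight concentrations was fitted to a four-parameter logistic model for IC50.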

[2] = High-throughput equilibrium solubility at pH 6.8; assay type: physicochemical; details: pH 6.8, aqueous buffer, thermodynamic from solid; read-out: HT-Eq Sol/pH 6.8
In short: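 Following the procedure of Zhou et al. (2007), compound solubility was determined at pH 6.8.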

mTOR = target: T2, mTOR (Homo sapiens, UniProt P42345); assay: Biochemical assay for m-TOR by TR-FRET
T2 construct: purchased Invitrogen Corporation (Carlsbad/Calif., USA) PV4753
T2 sequence (P42345 1360-2549 limits assumed): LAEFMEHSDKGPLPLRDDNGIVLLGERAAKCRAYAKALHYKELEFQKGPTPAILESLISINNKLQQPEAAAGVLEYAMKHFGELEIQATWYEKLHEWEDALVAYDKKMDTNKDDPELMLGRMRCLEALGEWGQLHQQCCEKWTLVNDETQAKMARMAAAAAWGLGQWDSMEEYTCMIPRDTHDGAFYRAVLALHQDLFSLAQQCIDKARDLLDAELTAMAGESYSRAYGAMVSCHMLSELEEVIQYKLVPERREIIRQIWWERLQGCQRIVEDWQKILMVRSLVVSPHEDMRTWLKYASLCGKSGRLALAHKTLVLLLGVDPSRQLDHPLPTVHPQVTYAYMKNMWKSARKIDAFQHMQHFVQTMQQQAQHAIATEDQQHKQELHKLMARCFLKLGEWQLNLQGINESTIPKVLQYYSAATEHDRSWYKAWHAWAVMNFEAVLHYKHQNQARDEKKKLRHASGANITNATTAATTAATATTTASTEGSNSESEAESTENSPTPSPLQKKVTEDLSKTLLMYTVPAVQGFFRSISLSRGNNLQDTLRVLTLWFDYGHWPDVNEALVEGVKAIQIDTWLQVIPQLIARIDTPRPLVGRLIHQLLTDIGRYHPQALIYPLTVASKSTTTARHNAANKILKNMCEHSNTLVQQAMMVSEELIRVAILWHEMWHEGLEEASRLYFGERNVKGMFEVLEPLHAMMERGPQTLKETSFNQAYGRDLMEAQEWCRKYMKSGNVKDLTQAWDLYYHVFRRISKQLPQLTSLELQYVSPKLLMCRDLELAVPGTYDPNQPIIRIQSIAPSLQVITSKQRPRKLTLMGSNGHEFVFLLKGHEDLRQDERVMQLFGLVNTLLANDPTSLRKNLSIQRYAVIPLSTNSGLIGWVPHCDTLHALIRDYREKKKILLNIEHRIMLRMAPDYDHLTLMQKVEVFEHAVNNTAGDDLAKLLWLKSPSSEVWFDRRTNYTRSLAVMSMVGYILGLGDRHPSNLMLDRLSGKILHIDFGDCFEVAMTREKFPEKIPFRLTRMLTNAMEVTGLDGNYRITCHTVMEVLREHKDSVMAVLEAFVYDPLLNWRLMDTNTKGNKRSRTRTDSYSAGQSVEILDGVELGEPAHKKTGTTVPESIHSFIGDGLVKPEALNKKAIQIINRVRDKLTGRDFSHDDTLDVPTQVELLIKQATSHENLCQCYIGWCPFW
In short: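 mTOR (0.5 nM) phosphorylates GFP-4EBP1 (400 nM) with 8 μM ATP at rt in 50 mM HEPES pH 7.5, 10 mM MnCl2, 50 mM NaCl, 1 mM EGTA, 1 mM DTT; compounds 0.003–10 μM final. EDTA stop with Tb-anti-p4EBP1[pT46] antibody (0.5 nM); TR-FRET read after 15 min against no-enzyme and vehicle controls.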

SMILES | HT-Perm logPe pH6.8 [1] | IC50 (PI3K beta; read-out: EPK_PI3Kbeta/IC50) [nM] | solubility thermodynamic [2] [µg/mL] | IC50 (mTOR; read-out: EPK_mTOR/IC50) [nM] | HT-perm/logPe pH6.8 [1] | IC50 (PI3K beta; read-out: PI3Kbeta/IC50) [nM] | IC50 (mTOR; read-out: mTOR/IC50) [nM]
COCc1ncc(-c2ccc3ncc4c(c3c2)n(-c2ccc(N3CCC3)nc2C)c(=O)n4C)cc1OC [Example 23.6, 1-(6-Azetidin-1-yl-2-methyl-pyridin-3-yl)-8-(5-methoxy-6-methoxymethyl-pyridin-3-yl)-3-methyl-1,3-dihydro-imidazo[4,5-c]quinolin-2-one] | −4.2 | 353 | 21 (≈ 42.3 µM) | 137 |  |  | 
Cc1ncccc1-n1c(=O)n(C)c2cnc3ccc(-c4cnc(N(C)C)nc4)cc3c21 [Example 2.15, 8-(2-Dimethylamino-pyrimidin-5-yl)-3-methyl-1-(2-methyl-pyridin-3-yl)-1,3-dihydro-imidazo[4,5-c]quinolin-2-one] |  |  | 11 (≈ 26.7 µM) |  | −3.7 | 360 | 53
CNc1ccc(-c2ccc3ncc4c(c3c2)n(-c2ccc(F)nc2C)c(=O)n4C)cn1 [Example 7.4, 1-(6-Fluoro-2-methyl-pyridin-3-yl)-3-methyl-8-(6-methylamino-pyridin-3-yl)-1,3-dihydro-imidazo[4,5-c]quinolin-2-one] |  |  | 11 (≈ 26.5 µM) |  | −4.3 | 263 | 8
CCNc1cc(-c2ccc3ncc4c(c3c2)n(-c2ccc(N3CCC3)nc2C)c(=O)n4C)cnc1CO [Example 23.8, 1-(6-Azetidin-1-yl-2-methyl-pyridin-3-yl)-8-(5-ethylamino-6-hydroxymethyl-pyridin-3-yl)-3-methyl-1,3-dihydro-imidazo[4,5-c]quinolin-2-one] | −5.7 | 36 | 57 (≈ 115 µM) | 4 |  |  | 
CCOc1cc(-c2ccc3ncc4c(c3c2)n(-c2ccc(N3CCC3)nc2C)c(=O)n4C)cnc1COC [Example 23.5, 1-(6-Azetidin-1-yl-2-methyl-pyridin-3-yl)-8-(5-ethoxy-6-methoxymethyl-pyridin-3-yl)-3-methyl-1,3-dihydro-imidazo[4,5-c]quinolin-2-one] | −3.8 | 208 | 69 (≈ 135 µM) | 25 |  |  | 
Cc1ncccc1-n1c(=O)n(C)c2cnc3ccc(-c4cncc(N5CCC5)c4)cc3c21 [Example 2.29, 8-(5-Azetidin-1-yl-pyridin-3-yl)-3-methyl-1-(2-methyl-pyridin-3-yl)-1,3-dihydro-imidazo[4,5-c]quinolin-2-one] | −4.3 | 782 | 8 (≈ 18.9 µM) | 43 |  |  | 
Cc1ncccc1-n1c(=O)n(C)c2cnc3ccc(-c4cnc(N)c(C(F)(F)F)c4)cc3c21 [Example 2.11, 8-(6-Amino-5-trifluoromethyl-pyridin-3-yl)-3-methyl-1-(2-methyl-pyridin-3-yl)-1,3-dihydro-imidazo[4,5-c]quinolin-2-one] |  |  | 13 (≈ 28.9 µM) |  | −4.0 | 14 | 16
CCNc1ncc(-c2ccc3ncc4c(c3c2)n(-c2ccc(N3CC[C@@H](O)C3)nc2C)c(=O)n4C)cc1COCC [Example 34.4, 8-(5-Ethoxymethyl-6-ethylamino-pyridin-3-yl)-1-[6-((R)-3-hydroxy-pyrrolidin-1-yl)-2-methyl-pyridin-3-yl]-3-methyl-1,3-dihydro-imidazo[4,5-c]quinolin-2-one] | −4.1 | 454 | 172 (≈ 311 µM) | 214 |  |  | 
CNc1ncc(-c2ccc3ncc4c(c3c2)n(-c2ccc(N(C)CCO)nc2C)c(=O)n4C)cn1 [Example 26.2, 1-{6-[(2-Hydroxy-ethyl)-methyl-amino]-2-methyl-pyridin-3-yl}-3-methyl-8-(2-methylamino-pyrimidin-5-yl)-1,3-dihydro-imidazo[4,5-c]quinolin-2-one] | −4.9 | 99 | 23 (≈ 48.9 µM) | 3 |  |  | 
CNc1ccc(-c2ccc3ncc4c(c3c2)n(-c2cccnc2C)c(=O)n4C)cn1 [Example 2.13, 3-Methyl-8-(6-methylamino-pyridin-3-yl)-1-(2-methyl-pyridin-3-yl)-1,3-dihydro-imidazo[4,5-c]quinolin-2-one] |  |  | 56 (≈ 141 µM) |  | −4.7 | 226 | 19
COc1cc(-c2ccc3ncc4c(c3c2)n(-c2cccnc2C)c(=O)n4C)cnc1C(OC)OC [Example 2.27, 8-(6-Dimethoxymethyl-5-methoxy-pyridin-3-yl)-3-methyl-1-(2-methyl-pyridin-3-yl)-1,3-dihydro-imidazo[4,5-c]quinolin-2-one] | −5.3 | 1240 | > 472 | 169 |  |  | 
CNc1ncc(-c2ccc3ncc4c(c3c2)n(-c2ccc(N3CC[C@H](O)C3)nc2C)c(=O)n4C)cc1F [Example 32.2, 8-(5-Fluoro-6-methylamino-pyridin-3-yl)-1-[6-((S)-3-hydroxy-pyrrolidin-1-yl)-2-methyl-pyridin-3-yl]-3-methyl-1,3-dihydro-imidazo[4,5-c]quinolin-2-one] | −4.8 | 1070 | 7 (≈ 14 µM) | 10 |  |  | 
Cc1nc(N(C)CCO)ccc1-n1c(=O)n(C)c2cnc3ccc(-c4cnc(N)c(C(F)(F)F)c4)cc3c21 [Example 26.1, 8-(6-Amino-5-trifluoromethyl-pyridin-3-yl)-1-{6-[(2-hydroxy-ethyl)-methyl-amino]-2-methyl-pyridin-3-yl}-3-methyl-1,3-dihydro-imidazo[4,5-c]quinolin-2-one] | −4.2 | < 3 | 4 (≈ 7.64 µM) | < 6 |  |  | 
COc1ccc(-c2ccc3ncc4c(c3c2)n(-c2cccnc2C)c(=O)n4C)cn1 [Example 2.12, 8-(6-Methoxy-pyridin-3-yl)-3-methyl-1-(2-methyl-pyridin-3-yl)-1,3-dihydro-imidazo[4,5-c]quinolin-2-one] |  |  | 27 (≈ 67.9 µM) |  | −3.3 | 132 | 74
Cc1nc(F)ccc1-n1c(=O)n(C)c2cnc3ccc(-c4cncc(C(C)(C)O)c4)cc3c21 [Example 7.8, 1-(6-Fluoro-2-methyl-pyridin-3-yl)-8-[5-(1-hydroxy-1-methyl-ethyl)-pyridin-3-yl]-3-methyl-1,3-dihydro-imidazo[4,5-c]quinolin-2-one] | −5.5 | 45 | 372 (≈ 839 µM) | 86 |  |  | 
Cc1nc(N2CCC2)ccc1-n1c(=O)n(C)c2cnc3ccc(-c4cncc(C(C)(C)O)c4)cc3c21 [Example 23.3, 1-(6-Azetidin-1-yl-2-methyl-pyridin-3-yl)-8-[5-(1-hydroxy-1-methyl-ethyl)-pyridin-3-yl]-3-methyl-1,3-dihydro-imidazo[4,5-c]quinolin-2-one] | −5 | 19 | 204 (≈ 424 µM) | 7 |  |  | 
COc1ncc(-c2ccc3ncc4c(c3c2)n(-c2ccc(N3CC[C@H](O)C3)nc2C)c(=O)n4C)c(OC)n1 [Example 32.3, 8-(2,4-Dimethoxy-pyrimidin-5-yl)-1-[6-((S)-3-hydroxy-pyrrolidin-1-yl)-2-methyl-pyridin-3-yl]-3-methyl-1,3-dihydro-imidazo[4,5-c]quinolin-2-one] | −5.3 | 192 | 30 (≈ 58.4 µM) | 15 |  |  | 
Cc1nc(C(C)(C)O)ccc1-n1c(=O)n(C)c2cnc3ccc(-c4cncc(C5(C#N)CCC5)c4)cc3c21 [Example 31.8, 1-(5-{1-[6-(1-Hydroxy-1-methyl-ethyl)-2-methyl-pyridin-3-yl]-3-methyl-2-oxo-2,3-dihydro-1H-imidazo[4,5-c]quinolin-8-yl}-pyridin-3-yl)-cyclobutanecarbonitrile] | −4.3 | 30 | 111 (≈ 220 µM) | 122 |  |  | 
CCOc1ccc(-c2ccc3ncc4c(c3c2)n(-c2ccc(F)nc2C)c(=O)n4C)cn1 [Example 7.3, 8-(6-Ethoxy-pyridin-3-yl)-1-(6-fluoro-2-methyl-pyridin-3-yl)-3-methyl-1,3-dihydro-imidazo[4,5-c]quinolin-2-one] |  |  | 2 (≈ 4.66 µM) |  | −3.7 | 452 | 59
Cc1nc(N2CC[C@H](O)C2)ccc1-n1c(=O)n(C)c2cnc3ccc(-c4cncc(OC(C)C)c4)cc3c21 [Example 32.8, 1-[6-((S)-3-Hydroxy-pyrrolidin-1-yl)-2-methyl-pyridin-3-yl]-8-(5-isopropoxy-pyridin-3-yl)-3-methyl-1,3-dihydro-imidazo[4,5-c]quinolin-2-one] | −3.8 | 216 | 120 (≈ 235 µM) | 42.5 |  |  | 
